Results from US20240261422A1, “ANTHRACYCLINE ANTIBODY CONJUGATES” (SEAGEN INC., priority 2021, published 2024).
Read-outs that look alike come from different tables or passages of the source.

Columns and labels:
786-O, MDR + RCC = test: In vitro growth inhibition (CellTiter-Glo, 96 h), 786-O; format: cell-based; details: for IC50: 96 h; for IC50 (ng/mL) 786-O, MDR + RCC: cOKT9 ADCs, average DAR 8, 96 h
Procedure: (§1) Cell culture of cell lines as listed in Table 2-4 in log-phase growth were seeded in 96-well plates and grown for 24 h in cell culture media containing 150 μL RPMI 1640 supplemented with 20% FBS (see Mol. Cancer Ther., 2016, 15(5), 938-945 and Mol. Cancer Ther., 2018, 17(8), 1752-1760). Serial dilutions of free drugs or antibody-drug conjugates (final concentration between 0.004 nM and 1 μM) in cell culture media were prepared at 4× working concentrations; 50 μL of each dilution was added to the 96-well plates. Following addition of the drug or ADC, the cells were incubated with test articles (free drugs or ADCs) for 4 d at 37° C. After 96 h, growth inhibition was assessed by CellTiter-Glo® (Promega, Madison, WI) and luminescence was measured on a plate reader (brand, model).
(§2) Cells were treated for 96 hours with anthracycline analogues listed in Table 2, and then assessed for viability as described in the procedures as described above. […] ND denotes value not determined with that assay for the specified compound.
(§3) ADCs were prepared by full reduction of interchain disulfides to reveal 8-conjugatable cysteines/antibody, and subsequent alkylation with the maleimide-containing drug-linkers (Compounds 14, 18, 21, 24, 29, 32, 33, 34, and 48) according to the procedures described in Mol. Cancer Ther. 2018, 17(8). 1752-1760. Conjugates of antibody cOKT9 were prepared with anthracycline linkers. Cancer cell lines were treated with cOKT9 ADCs (average DAR of 8:1) for 96 h and then assessed for viability. […] ND denotes value not determined with that assay for the specified compound.

L540cy, HL = test: In vitro growth inhibition (CellTiter-Glo, 96 h), L540cy; format: cell-based; details: for IC50: anthracycline free drugs, 96 h, read-out: IC50 (nM) L540cy, HL
Procedure: as §1, §2, §3
(§4) Anti-CD30 ADCs comprising cAC10 antibody conjugated to drug-linkers 24, 32, 29, 18, 14, and 48 with an average DAR of 4 were prepared for evaluation on a CD30-expressing lymphoma cell line panel. […] Anti-CD30 conjugates bearing the PNU linkers 24, 32, 29, 18, and 14 were active on L540cy, DEL, and Karpas299 lymphoma cell lines, and conjugate 48 was active on L540cy and DEL cell lines, with IC50s ranging from 0.2-4 ng/mL.

BxPC3, PancCa = test: In vitro growth inhibition (CellTiter-Glo, 96 h), BxPC3; format: cell-based; details: for IC50: anthracycline free drugs, 96 h, read-out: IC50 (nM) BxPC3, PancCa; for IC50 (ng/mL) BxPC3, PancCa: cOKT9 ADCs, average DAR 8, 96 h
Procedure: as §1, §2, §3

[1] = tested on: L540cy, 786-O, BxPC3, HL60, HL60/RV; details: for change of potency relative to the parent compound: comparison in words; for IC50s of cOKT9 conjugates: 24 h
HL60/RV, MDR + AML = test: In vitro growth inhibition (CellTiter-Glo, 96 h), HL60/RV; format: cell-based; details: for IC50: read-out: IC50 (nM) HL60/RV, MDR + AML; for IC50 (ng/mL) HL60/RV, MDR + AML: cOKT9 ADCs, average DAR 8, 96 h
Procedure: as §1, §2, §3

HL60, AML = test: In vitro growth inhibition (CellTiter-Glo, 96 h), HL60; format: cell-based; details: for IC50: read-out: IC50 (nM) HL60, AML; for IC50 (ng/mL) HL60, AML: cOKT9 ADCs, average DAR 8, 96 h
Procedure: as §1, §2, §3

Ramos, CD30 − NHL = test: In vitro growth inhibition (CellTiter-Glo, 96 h), Ramos; format: cell-based; details: cAC10 (anti-CD30) ADCs, average DAR 4
Procedure: as §1, §4

DEL, ALCL = test: In vitro growth inhibition (CellTiter-Glo, 96 h), DEL; format: cell-based; details: cAC10 (anti-CD30) ADCs, average DAR 4
Procedure: as §1, §4

Karpas299, ALCL = test: In vitro growth inhibition (CellTiter-Glo, 96 h), Karpas299; format: cell-based; details: cAC10 (anti-CD30) ADCs, average DAR 4
Procedure: as §1, §4

L428, MDR + HL = test: In vitro growth inhibition (CellTiter-Glo, 96 h), L428; format: cell-based; details: cAC10 (anti-CD30) ADCs, average DAR 4
Procedure: as §1, §4

[2] = Homo sapiens, 786-0, anthracycline free drugs, read-out: IC50 (nM) 786-O, MDR + RCC
[3] = cOKT9 ADCs, average DAR 8, 96 h
[4] = cOKT9 ADCs DAR 8, result in words
[5] = cAC10 (anti-CD30) ADCs, average DAR 4

SMILES: COc1cccc2c1C(=O)c1c(O)c3c(c(O)c1C2=O)C[C@@](O)(C(=O)O)C[C@@H]3O[C@H]1C[C@H](N2CCO[C@H](OC)C2)[C@H](O)[C@H](C)O1 [Compound 4, (2S,4S)-2,5,12-trihydroxy-4-(((2R,4S,5S,6S)-5-hydroxy-4-((S)-2-methoxymorpholino)-6-methyltetrahydro-2H-pyran-2-yl)oxy)-7-methoxy-6,11-dioxo-1,2,3,4,6,11-hexahydrotetracene-2-carboxylic acid]
- IC50 (786-O, MDR + RCC; [2]): 10 to 100 nM
- IC50 (L540cy, HL; L540cy): 10 to 100 nM
- IC50 (BxPC3, PancCa; Homo sapiens, BXPC-3): 10 to 100 nM
- change of potency relative to the parent compound ([1]; free drugs): lost roughly one order of magnitude in potency

SMILES: COc1cccc2c1C(=O)c1c(O)c3c(c(O)c1C2=O)C[C@@](O)(C(=O)CO)C[C@@H]3O[C@H]1C[C@H]2[C@H](O[C@@H]3[C@@H](OC)OCCN32)[C@H](C)O1 [Compound 5, PNU-159682, reference compound]
- IC50 (HL60/RV, MDR + AML; anthracycline free drugs, 96 h): < 10 nM
- IC50 (HL60, AML; anthracycline free drugs, 96 h): < 10 nM
- IC50 (786-O, MDR + RCC; anthracycline free drugs, read-out: IC50 (nM) 786-O, MDR + RCC): < 10 nM
- IC50 (786-O, MDR + RCC; free drug, read-out: IC50 value, 786-0): < 0.004 nM
- IC50 (L540cy, HL): < 10 nM
- IC50 (BxPC3, PancCa): < 10 nM
- IC50 ([1]; read-out: IC50 values on the cancer lines tested, free drugs, 96 h, value or range over the cell lines tested): ~0.01 nM

SMILES: COc1cccc2c1C(=O)c1c(O)c3c(c(O)c1C2=O)C[C@@](O)(C(=O)NCCN)C[C@@H]3O[C@H]1C[C@H]2[C@H](O[C@@H]3[C@@H](OC)OCCN32)[C@H](C)O1 [Compound 9, (2S,4S)—N-(2-aminoethyl)-2,5,12-trihydroxy-7-methoxy-4-(((1S,3R,4aS,9S,9aR,10aS)-9-methoxy-1-methyloctahydro-1H-pyrano[4′,3′:4,5]oxazolo[2,3-c][1,4]oxazin-3-yl)oxy)-6,11-dioxo-1,2,3,4,6,11-hexahydrotetracene-2-carboxamide]
- IC50 (HL60/RV, MDR + AML; Homo sapiens, HL-60, 96 h): 100 to 1000 nM
- IC50 (HL60, AML; Homo sapiens, HL-60, 96 h): < 10 nM
- IC50 (786-O, MDR + RCC; [2]): < 10 nM
- IC50 (L540cy, HL; L540cy): < 10 nM
- IC50 (BxPC3, PancCa; Homo sapiens, BXPC-3): < 10 nM
- change of potency relative to the parent compound ([1]; free drugs): increased potency in 4 of 5 cell lines

SMILES: COc1cccc2c1C(=O)c1c(O)c3c(c(O)c1C2=O)C[C@@](O)(C(=O)NCCOCCOCCOCCOCCNC(=O)CCN1C(=O)C=CC1=O)C[C@@H]3O[C@H]1C[C@H]2[C@H](O[C@@H]3[C@@H](OC)OCCN32)[C@H](C)O1 [Compound 21, (2S,4S)—N-(18-(2,5-dioxo-2,5-dihydro-1H-pyrrol-1-yl)-16-oxo-3,6,9,12-tetraoxa-15-azaoctadecyl)-2,5,12-trihydroxy-7-methoxy-4-(((1S,3R,4aS,9S,9aR,10aS)-9-methoxy-1-methyloctahydro-1H-pyrano[4′,3′:4,5]oxazolo[2,3-c][1,4]oxazin-3-yl)oxy)-6,11-dioxo-1,2,3,4,6,11-hexahydrotetracene-2-carboxamide]
- IC50 (ng/mL) HL60/RV, MDR + AML (HL60/RV, MDR + AML): D (IC50≥1000 ng/mL)
- IC50 (ng/mL) HL60, AML (HL60, AML): C (100 ng/mL≤IC50<1000 ng/mL)
- IC50 (ng/mL) 786-O, MDR + RCC (786-O, MDR + RCC): A (IC50<10 ng/mL)
- IC50 (ng/mL) L540cy, HL (L540cy, HL; [3]): A (IC50<10 ng/mL)
- IC50 (ng/mL) BxPC3, PancCa (BxPC3, PancCa): A (IC50<10 ng/mL)
- IC50s of cOKT9 conjugates [1]: 1 to 150 ng/mL

SMILES: COc1cccc2c1C(=O)c1c(O)c3c(c(O)c1C2=O)C[C@@](O)(C(=O)NCCNC(=O)OCc1ccc(NC(=O)[C@H](C)NC(=O)[C@@H](NC(=O)CCN2C(=O)C=CC2=O)C(C)C)cc1)C[C@@H]3O[C@H]1C[C@H]2[C@H](O[C@@H]3[C@@H](OC)OCCN32)[C@H](C)O1 [Compound 24, 4-((S)-2-((S)-2-(3-(2,5-dioxo-2,5-dihydro-1H-pyrrol-1-yl)propanamido)-3-methylbutanamido)propanamido)benzyl (2-((2S,4S)-2,5,12-trihydroxy-7-methoxy-4-(((1S,3R,4aS,9S,9aR,10aS)-9-methoxy-1-methyloctahydro-1H-pyrano[4′,3′:4,5]oxazolo[2,3-c][1,4]oxazin-3-yl)oxy)-6,11-dioxo-1,2,3,4,6,11-hexahydrotetracene-2-carboxamido)ethyl)carbamate]
- activity of cOKT9 conjugates on multidrug resistant HL60/RV (HL60/RV, MDR + AML; [4]): active
- IC50 (ng/mL) HL60/RV, MDR + AML (HL60/RV, MDR + AML): B (10 ng/mL≤IC50<100 ng/mL)
- IC50 (ng/mL) HL60, AML (HL60, AML): B (10 ng/mL≤IC50<100 ng/mL)
- IC50 (ng/mL) Ramos, CD30 − NHL (Ramos, CD30 − NHL): D (100 ng/mL≤IC50<500 ng/mL)
- IC50 (ng/mL) 786-O, MDR + RCC (786-O, MDR + RCC): B (10 ng/mL≤IC50<100 ng/mL)
- IC50 (ng/mL) DEL, ALCL (DEL, ALCL): A (IC50<1 ng/mL)
- IC50 (ng/mL) L540cy, HL (L540cy, HL; [5]): B (1 ng/mL≤IC50<10 ng/mL)
- IC50 (ng/mL) L540cy, HL (L540cy, HL; [3]): A (IC50<10 ng/mL)
- IC50 (ng/mL) BxPC3, PancCa (BxPC3, PancCa): A (IC50<10 ng/mL)
- IC50 (ng/mL) Karpas299, ALCL (Karpas299, ALCL): B (1 ng/mL≤IC50<10 ng/mL)
- IC50s of cOKT9 conjugates [1]: 1 to 150 ng/mL
- IC50 (ng/mL) L428, MDR + HL (L428, MDR + HL): E (IC50≥500 ng/mL)

SMILES: COc1cccc2c1C(=O)c1c(O)c3c(c(O)c1C2=O)C[C@@](O)(C(=O)NCCNC(=O)CCN1C(=O)C=CC1=O)C[C@@H]3O[C@H]1C[C@H](N2CCO[C@H](OC)C2)[C@H](O)[C@H](C)O1 [Compound 34, (2S,4S)—N-(2-(3-(2,5-dioxo-2,5-dihydro-1H-pyrrol-1-yl)propanamido)ethyl)-2,5,12-trihydroxy-4-(((2R,4S,5S,6S)-5-hydroxy-4-((S)-2-methoxymorpholino)-6-methyltetrahydro-2H-pyran-2-yl)oxy)-7-methoxy-6,11-dioxo-1,2,3,4,6,11-hexahydrotetracene-2-carboxamide]
- IC50 (ng/mL) 786-O, MDR + RCC (786-O, MDR + RCC): D (IC50≥1000 ng/mL)
- IC50 (ng/mL) L540cy, HL (L540cy, HL; [3]): D (IC50≥1000 ng/mL)
- IC50 (ng/mL) BxPC3, PancCa (BxPC3, PancCa): D (IC50≥1000 ng/mL)
- activity of cOKT9 conjugates across the panel of cancer cell lines [1, 4]: inactive

SMILES: COc1cccc2c1C(=O)c1c(O)c3c(c(O)c1C2=O)C[C@@](O)(C(=O)NCCNC(=O)CNC(=O)[C@H](C)NC(=O)[C@@H](NC(=O)CCN1C(=O)C=CC1=O)C(C)C)C[C@@H]3O[C@H]1C[C@H]2[C@H](O[C@@H]3[C@@H](OC)OCCN32)[C@H](C)O1 [Compound 48, (2S,4S)—N-((8S,11S)-15-(2,5-dioxo-2,5-dihydro-1H-pyrrol-1-yl)-11-isopropyl-8-methyl-4,7,10,13-tetraoxo-3,6,9,12-tetraazapentadecyl)-2,5,12-trihydroxy-7-methoxy-4-(((1S,3R,4aS,9S,9aR,10aS)-9-methoxy-1-methyloctahydro-1H-pyrano[4′,3′:4,5]oxazolo[2,3-c][1,4]oxazin-3-yl)oxy)-6,11-dioxo-1,2,3,4,6,11-hexahydrotetracene-2-carboxamide]
- IC50 (ng/mL) 786-O, MDR + RCC (786-O, MDR + RCC): B (10 ng/mL≤IC50<100 ng/mL)
- IC50 (ng/mL) DEL, ALCL (DEL, ALCL): A (IC50<1 ng/mL)
- IC50 (ng/mL) L540cy, HL (L540cy, HL; [5]): A (IC50<1 ng/mL)
- IC50 (ng/mL) L540cy, HL (L540cy, HL; [3]): A (IC50<10 ng/mL)
- IC50 (ng/mL) BxPC3, PancCa (BxPC3, PancCa): A (IC50<10 ng/mL)
- IC50s of cOKT9 conjugates [1]: 1 to 150 ng/mL
